Reference: patent publication US10383861B2, “3-(1H-pyrrolo[2,3-C]pyridin-2-yl)-1H-pyrazolo[3,4-C]pyridines and therapeutic uses thereof” (Samumed, LLC, priority 2015, dated 2019)

Assays:
Type in all cases: cell-based
[1] = test system: Wnt activity; assay: Wnt activity screening assay, Sp5-Luc reporter gene in SW480 cells; conditions: Homo sapiens; for inhibition at 10 µM: SW480, read-out: percent inhibition at 10 μM; for EC50: Sp5-Luc reporter, SW480 cells, overnight incubation
Text: The screening assay for Wnt activity is described as follows. Reporter cell lines can be generated by stably transducing cancer cell lines (e.g., colon cancer) or primary cells (e.g., IEC-6 intestinal cells) with a lentiviral construct that includes a Wnt-responsive promoter driving expression of the firefly luciferase gene.
SW480 colon carcinoma cells were transduced with a lentiviral vector expressing luciferase with a human Sp5 promoter consisting of a sequence of eight TCF/LEF binding sites. SW480 cells stably expressing the Sp5-Luc reporter gene and a hygromycin resistance gene were selected by treatment with 150 μg/mL of hygromycin for 7 days. These stably transduced SW480 cells were expanded in cell culture and used for all further screening activities. […] For Sp5-Luc reporter gene assays, the cells were plated at 4,000 cells/well in 384-well plates with medium containing 1% fetal bovine serum and incubated overnight at 37° C. and 5% CO2. Following incubation, 20 μl of BrightGlo luminescence reagent (Promega) was added to each well of the 384-well assay plates. The plates were placed on an orbital shaker for 2 min and then luminescence was quantified using the Envision (Perkin Elmer) plate reader. Readings were normalized to DMSO only treated cells, and normalized activities were utilized for EC50 calculations using the dose-response log (inhibitor) vs. response -variable slope (four parameters) nonlinear regression feature available in GraphPad Prism 5.0 (or Dotmatics).

[2] = test system: SW480 colon cancer cells; assay: Cell viability assay (CellTiter-Blue) in SW480 colon cancer cells; conditions: Homo sapiens; for EC50: 96 h, SW480 cell viability, four days, CellTiter-Blue; for inhibition at 10 µM: SW480, read-out: percent inhibition at 10 μM
Protocol: Representative compounds were screened using the following assay procedure to assess the effect on cell viability as described below.
Approximately 2×10^3 SW480 colon cancer cells were seeded into each well and allowed to incubate in the presence or absence of compound for four days at 37° C./5% CO2. Eight replicates of DMSO-treated cells served as controls and cells treated with compound were performed in duplicate.
After incubation, 20 μL of CellTiter-Blue (Promega) was added to each well allowed to incubate for approximately 3 hours. This reagent was a buffered solution which contains resazurin, metabolically active cells were able to reduce rezarurin (blue) into resorufin (pink) which was highly fluorescent. This measured fluorescence was used as a readout for cell viability.

[3] = test system: primary human fibroblasts derived from IPF patients (LL29 cells); assay: Inhibition of the fibrotic process: αSMA staining in TGF-β1 treated LL29 fibroblasts; conditions: Fibroblast; for EC50: 96 h, LL29 cells, TGF-β1 20 ng/mL, 4 days, % αSMA positive cells; for inhibition at 10 µM: read-out: percent inhibition at 10 μM
Protocol: Representative compounds were screened using primary human fibroblasts (derived from IPF patients) treated with TGF-β1 to determine their ability to inhibit the fibrotic process.
LL29 cells are plated at 1,500 cells/well in 80 μL/well F12 medium supplemented with 1% Fetal Bovine Serum. […] Wells treated with TGF-β1 and containing DMSO were used as controls. […] Following incubation for 4 days, SYTOX green nucleic acid stain (Life Technologies [Thermo Fisher Scientific]) was added to the wells at a final concentration of 1 μM and incubated at room temperature for 30 min.

[4] = test system: IL-6; assay: IL-6 inhibition in LPS-stimulated THP-1 cells (HTRF); conditions: Homo sapiens; for inhibition at 10 µM: THP-1, read-out: percent inhibition at 10 μM; for EC50: THP-1 cells, LPS 500 ng/mL, 22 hours, IL6 HTRF
Protocol: THP-1 cells were cultured in basal media with 1% FBS for 24 hours before the start of the assay. […] THP-1 cells were plated at 5000 cells/well in the 384-well plates and incubated at 37° C. for 2 h. 500 ng/mL of LPS was added after 2 hours and cells were incubated for another 22 hours at 37° C. Plates were spun in a centrifuge for 1 minute at […] and a mixture of anti-IL6 XL665, and anti-IL6 Cryptate diluted in reconstitution buffer (Cisbio Inc.) was added to each well. Following incubation for 3 hrs at room temperature, Homogeneous Time-Resolved Fluorescence (HTRF) was measured using the Envision (Perkin Elmer) at 665 nm and […]. The ratio of fluorescence at 665 nm to 620 nm was used as a readout for IL6 quantification. All samples were processed in duplicate. Readings were normalized to DMSO treated cells and normalized activities were utilized for EC50 calculations using the dose-response log (inhibitor) vs. response -variable slope (four parameters) nonlinear regression feature available in GraphPad Prism 5.0 (or Dotmatics).

Structure (SMILES)	inhibition at 10 µM [1]	EC50 [1]	EC50 [2]	inhibition at 10 µM [2]	EC50 [3]	inhibition at 10 µM [4]	EC50 [4]	inhibition at 10 µM [3]
CC(C)CC(=O)Nc1cncc(-c2cc3c(-c4cc5c(-c6cccc(F)c6)cncc5[nH]4)n[nH]c3cn2)c1 [Compound 2, N-(5-(3-(4-(3-Fluorophenyl)-1 H-pyrrolo[2,3-c]pyridin-2-yl)-1 H-pyrazolo[3,4-c]pyridin-5-yl)pyridin-3-yl)-3-methylbutanamide]	5.6%	> 10 µM	> 10 µM	25.4%	2.23 µM	37.2%	> 10 µM	
CN(C)c1cncc(-c2cc3c(-c4cc5c(-c6cccc(F)c6)cncc5[nH]4)n[nH]c3cn2)c1 [Compound 7, 5-(3-(4-(3-Fluorophenyl)-1H-pyrrolo[2,3-c]pyridin-2-yl)-1H-pyrazolo[3,4-c]pyridin-5-yl)-N,N-dimethylpyridin-3-amine]		2.33 µM	1.26 µM		1.04 µM		9.84 µM	
CCC(=O)Nc1cncc(-c2cc3c(-c4cc5c(-c6ccc(F)cc6)cncc5[nH]4)n[nH]c3cn2)c1 [Compound 29, N-(5-(3-(4-(4-Fluorophenyl)-1H-pyrrolo[2,3-c]pyridin-2-yl)-1H-pyrazolo[3,4-c]pyridin-5-yl)pyridin-3-yl)propionamide]	37.8%	> 10 µM	> 10 µM	29.6%	> 10 µM	43%	> 10 µM	49.1%
Cc1ccncc1-c1cc2c(-c3cc4c(-c5ccc(F)cc5)cncc4[nH]3)n[nH]c2cn1 [Compound 33, 3-(4-(4-Fluorophenyl)-1H-pyrrolo[2,3-c]pyridin-2-yl)-5-(4-methylpyridin-3-yl)-1H-pyrazolo[3,4-c]pyridine]		1.84 µM	1.09 µM		0.333 µM		4.58 µM	
CC(C)(C)C(=O)Nc1cncc(-c2cc3c(-c4cc5c(-c6ccc(F)cc6)cncc5[nH]4)n[nH]c3cn2)c1 [Compound 36, N-(5-(3-(4-(4-Fluorophenyl)-1H-pyrrolo[2,3-c]pyridin-2-yl)-1H-pyrazolo[3,4-c]pyridin-5-yl)pyridin-3-yl)pivalamide]		1.59 µM	1.1 µM		0.299 µM	29.6%	> 10 µM	
CC(C)Nc1cncc(-c2cc3c(-c4cc5c(-c6ccc(F)cc6)cncc5[nH]4)n[nH]c3cn2)c1 [Compound 40, 5-(3-(4-(4-Fluorophenyl)-1H-pyrrolo[2,3-c]pyridin-2-yl)-1H-pyrazolo[3,4-c]pyridin-5-yl)-N-isopropylpyridin-3-amine]		0.937 µM	1.29 µM		0.141 µM		2.47 µM	
CC(C)(C)CC(=O)Nc1cncc(-c2cc3c(-c4cc5c(-c6ccc(F)cc6)cncc5[nH]4)n[nH]c3cn2)c1 [Compound 44, N-(5-(3-(4-(4-Fluorophenyl)-1H-pyrrolo[2,3-c]pyridin-2-yl)-1H-pyrazolo[3,4-c]pyridin-5-yl)pyridin-3-yl)-3,3-dimethylbutanamide]		0.679 µM	3.51 µM		0.434 µM	16.2%	> 10 µM	
O=C(Nc1cncc(-c2cc3c(-c4cc5c(-c6ccc(F)cc6)cncc5[nH]4)n[nH]c3cn2)c1)C1CCC1 [Compound 49, N-(5-(3-(4-(4-Fluorophenyl)-1H-pyrrolo[2,3-c]pyridin-2-yl)-1H-pyrazolo[3,4-c]pyridin-5-yl)pyridin-3-yl)cyclobutanecarboxamide]		3.65 µM	> 10 µM	36%	3.04 µM	42.5%	> 10 µM	
CC(C)(C)CC(=O)Nc1cncc(-c2cc3c(-c4cc5c(-c6ccccc6F)cncc5[nH]4)n[nH]c3cn2)c1 [Compound 72, N-(5-(3-(4-(2-Fluorophenyl)-1H-pyrrolo[2,3-c]pyridin-2-yl)-1H-pyrazolo[3,4-c]pyridin-5-yl)pyridin-3-yl)-3,3-dimethylbutanamide]		0.975 µM	0.693 µM		0.468 µM		0.805 µM	
O=C(Nc1cncc(-c2cc3c(-c4cc5c(-c6ccccc6F)cncc5[nH]4)n[nH]c3cn2)c1)C1CCCCC1 [Compound 79, N-(5-(3-(4-(2-Fluorophenyl)-1H-pyrrolo[2,3-c]pyridin-2-yl)-1H-pyrazolo[3,4-c]pyridin-5-yl)pyridin-3-yl)cyclohexanecarboxamide]		3.25 µM	1.73 µM		1.08 µM		9.56 µM	
Fc1ccccc1-c1cncc2[nH]c(-c3n[nH]c4cnc(-c5ccccn5)cc34)cc12 [Compound 84, 3-(4-(2-Fluorophenyl)-1H-pyrrolo[2,3-c]pyridin-2-yl)-5-(pyridin-2-yl)-1H-pyrazolo[3,4-c]pyridine]		1.06 µM	1.29 µM		1.39 µM		3.03 µM	
O=C(Cc1ccccc1)Nc1cncc(-c2cc3c(-c4cc5c(-c6cccnc6)cncc5[nH]4)n[nH]c3cn2)c1 [Compound 94, 2-Phenyl-N-(5-(3-(4-(pyridin-3-yl)-1H-pyrrolo[2,3-c]pyridin-2-yl)-1H-pyrazolo[3,4-c]pyridin-5-yl)pyridin-3-yl)acetamide]	12.2%	> 10 µM	> 10 µM	28.9%	> 10 µM		3.05 µM	0%
CC(C)Nc1cncc(-c2cc3c(-c4cc5c(-c6cccnc6)cncc5[nH]4)n[nH]c3cn2)c1 [Compound 96, N-Isopropyl-5-(3-(4-(pyridin-3-yl)-1H-pyrrolo[2,3-c]pyridin-2-yl)-1H-pyrazolo[3,4-c]pyridin-5-yl)pyridin-3-amine]		0.94 µM	> 10 µM	25.2%	0.624 µM		3.15 µM	
CC(C)CC(=O)Nc1cncc(-c2cc3c(-c4cc5c(-c6ccncc6)cncc5[nH]4)n[nH]c3cn2)c1 [Compound 114, 3-Methyl-N-(5-(3-(4-(pyridin-4-yl)-1H-pyrrolo[2,3-c]pyridin-2-yl)-1H-pyrazolo[3,4-c]pyridin-5-yl)pyridin-3-yl)butanamide]	15.1%	> 10 µM	> 10 µM	14.2%	> 10 µM	11.6%	> 10 µM	23%
O=C(Nc1cncc(-c2cc3c(-c4cc5c(-c6ccncc6)cncc5[nH]4)n[nH]c3cn2)c1)c1ccccc1 [Compound 123, N-(5-(3-(4-(Pyridin-4-yl)-1H-pyrrolo[2,3-c]pyridin-2-yl)-1H-pyrazolo[3,4-c]pyridin-5-yl)pyridin-3-yl)benzamide]	8%	> 10 µM	> 10 µM	20.9%	> 10 µM	19%	> 10 µM	53.6%
CCCCC(=O)Nc1cncc(-c2cc3c(-c4cc5c(-c6ccncc6)cncc5[nH]4)n[nH]c3cn2)c1 [Compound 131, N-(5-(3-(4-(Pyridin-4-yl)-1H-pyrrolo[2,3-c]pyridin-2-yl)-1H-pyrazolo[3,4-c]pyridin-5-yl)pyridin-3-yl)pentanamide]	13.1%	> 10 µM	> 10 µM	17.8%	> 10 µM	20.6%	> 10 µM	8.3%
